From PubChem BioAssay (NCI)
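Values below derive from 48-hour exposures of cells grown in 96-well plates, with endpoints linearly interpolated between the two concentrations bracketing the appropriate inhibition level. The concentration for full growth arrest is given as TGI.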

Experiments:
Experiment in all cases: NCI tumour cell line growth inhibition, 48 h
[1] = tested on: 786-0 renal
[2] = tested on: A498 renal
[3] = tested on: A549 NSCLC
[4] = tested on: ACHN renal
[5] = tested on: CAKI-1 renal
[6] = tested on: CCRF-CEM leukemia
[7] = tested on: COLO 205 colon
[8] = tested on: DLD-1 colon
[9] = tested on: DMS 114 small cell lung
[10] = tested on: DMS 273 small cell lung
[11] = tested on: EKVX NSCLC
[12] = tested on: HCC-2998 colon
[13] = tested on: HCT-116 colon
[14] = tested on: HCT-15 colon
[15] = tested on: HL-60(TB) leukemia
[16] = tested on: HOP-18 NSCLC
[17] = tested on: HOP-62 NSCLC
[18] = tested on: HOP-92 NSCLC
[19] = tested on: HT29 colon
[20] = tested on: IGROV1 ovarian
[21] = tested on: K-562 leukemia
[22] = tested on: KM12 colon
[23] = tested on: KM20L2 colon
[24] = tested on: LOX IMVI melanoma
[25] = tested on: LXFL 529 NSCLC
[26] = tested on: M14 melanoma
[27] = tested on: M19-MEL melanoma
[28] = tested on: MALME-3M melanoma
[29] = tested on: MCF7 breast
[30] = tested on: MOLT-4 leukemia
[31] = tested on: NCI-H226 lung
[32] = tested on: NCI-H23 lung
[33] = tested on: NCI-H460 lung
[34] = tested on: NCI-H522 lung
[35] = tested on: NCI/ADR-RES ovarian
[36] = tested on: OVCAR-3 ovarian
[37] = tested on: OVCAR-4 ovarian
[38] = tested on: OVCAR-5 ovarian
[39] = tested on: OVCAR-8 ovarian
[40] = tested on: P388 leukemia
[41] = tested on: P388/ADR leukemia
[42] = tested on: RPMI-8226 leukemia
[43] = tested on: RXF 393 renal
[44] = tested on: SF-268 CNS
[45] = tested on: SF-295 CNS
[46] = tested on: SF-539 CNS
[47] = tested on: SK-MEL-2 melanoma
[48] = tested on: SK-MEL-28 melanoma
[49] = tested on: SK-MEL-5 melanoma
[50] = tested on: SK-OV-3 ovarian
[51] = tested on: SN12C renal
[52] = tested on: SN12K1 renal
[53] = tested on: SNB-19 CNS
[54] = tested on: SNB-75 CNS
[55] = tested on: SNB-78 CNS
[56] = tested on: SR leukemia
[57] = tested on: SW-620 colon
[58] = tested on: U251 CNS
[59] = tested on: UACC-257 melanoma
[60] = tested on: UACC-62 melanoma
[61] = tested on: UO-31 renal

For `CNC(=O)OCc1nc(SC(C)C)n(C)c1COC(=O)NC`, the TGI [1] was greater than 100 µM, the TGI [2] was greater than 100 µM and the TGI [3] was greater than 100 µM. The TGI [4] was greater than 100 µM, the TGI [5] was greater than 100 µM and the TGI [6] was greater than 88 µM. It also gave a TGI [7] greater than 100 µM, a TGI [8] greater than 100 µM and a TGI [9] greater than 100 µM. For the same compound, the TGI [10] was greater than 100 µM, the TGI [11] was greater than 100 µM and the TGI [12] was greater than 100 µM. The TGI [13] was greater than 100 µM, the TGI [14] was greater than 100 µM and the TGI [15] was greater than 100 µM. For the same compound, the TGI [16] was greater than 100 µM, the TGI [17] was greater than 100 µM and the TGI [18] was greater than 100 µM. It also gave a TGI [19] greater than 100 µM, a TGI [20] greater than 100 µM and a TGI [21] greater than 100 µM. The TGI [22] was greater than 100 µM, the TGI [23] was greater than 100 µM and the TGI [24] was greater than 100 µM. It also gave a TGI [25] greater than 100 µM, a TGI [26] greater than 100 µM and a TGI [27] greater than 100 µM. It also gave a TGI [28] greater than 100 µM, a TGI [29] greater than 100 µM and a TGI [30] greater than 86.6 µM. The TGI [31] was greater than 100 µM, the TGI [32] was greater than 100 µM and the TGI [33] was greater than 100 µM. For the same compound, the TGI [34] was greater than 100 µM, the TGI [35] was greater than 100 µM and the TGI [36] was greater than 100 µM. It also gave a TGI [37] greater than 100 µM, a TGI [38] greater than 100 µM and a TGI [39] greater than 100 µM. For the same compound, the TGI [40] was greater than 100 µM, the TGI [41] was greater than 100 µM and the TGI [42] was greater than 100 µM. For the same compound, the TGI [43] was greater than 100 µM, the TGI [44] was greater than 100 µM and the TGI [45] was greater than 100 µM. For the same compound, the TGI [46] was greater than 100 µM, the TGI [47] was greater than 100 µM and the TGI [48] was greater than 100 µM. For the same compound, the TGI [49] was greater than 100 µM, the TGI [50] was greater than 100 µM and the TGI [51] was greater than 100 µM. For the same compound, the TGI [52] was greater than 100 µM, the TGI [53] was greater than 100 µM and the TGI [54] was greater than 100 µM. It also gave a TGI [55] greater than 100 µM, a TGI [56] greater than 100 µM and a TGI [57] greater than 100 µM. For the same compound, the TGI [58] was greater than 100 µM, the TGI [59] was greater than 100 µM and the TGI [60] was greater than 100 µM. It also gave a TGI [61] greater than 100 µM.
